test system: Mouse B16 melanoma cells; assay: Melanin production inhibition test; assay type: cell-based; details: Mus musculus, 72 h, Table 1, 3 days, minimum non-cytotoxic concentration at which melanin amount was 80% or less, read-out: Inhibitory effect on melanin production
Experimental: A test for melanin production inhibition by the compounds of the formula (1) was conducted. The test method is as follows.
Melanin Production Inhibition Test
(1) Inoculation of Cells and Addition of Test Substances
Mouse B16 melanoma cells were inoculated in a six well plate at 100,000 cells/well. The next day, test substance solutions (solvent: DMSO) were added.
(2) Cell Proliferation Test
Three days after the addition of the test substance solution, the medium was removed by aspiration. Then 1 ml of EMEM medium containing 10% Alamar Blue solution was added, and a reaction was allowed to proceed at 37° C. After 30 minutes, 100 μL of the reaction mixture was transferred to a 96 well plate and fluorescence was measured at an excitation wavelength of 544 nm and a measurement wavelength of 590 nm. Using the value thus measured as a relative value of cell count, a ratio of the cell count (% cell count) of the test substance-added group to the test substance-absent group (group in which only the solvent was added) was calculated. The higher the % cell count, the lower the cytotoxicity. It was determined that a compound having the % cell count of 80% or more was non-cytotoxic, and that a compound having the % cell count of less than 80% was cytotoxic.
(3) Quantification of Melanin
The cells after the cell proliferation test were washed with PBS three times, and then lysed by addition of 200 μL of 1M NaOH to measure an absorbance at 475 nm. Using the value thus measured as a relative value of the melanin amount, a ratio of the melanin amount (%) of the test substance-added group to the test substance-absent group (group in which only the solvent was added) was calculated. The lower the ratio of the melanin amount, the higher the melanin production-inhibitory effect. […] The inhibitory effect on melanin production was evaluated according to the following criteria.
⊚: the minimum concentration for inhibition of melanin production was 1 ppm or less.
◯: the minimum concentration for inhibition of melanin production was more than 1 ppm and 10 ppm or less.

SMILES	minimal effective concentration
Cc1ccccc1Nc1nc(-c2ccncc2)cs1 [Compound 1]	≤ 1 µg/mL
Cc1ccccc1Nc1nc(-c2ccccn2)cs1 [Compound 2, 4-(pyridin-2-yl)-N-o-toluylthiazol-2-amine]	≤ 1 µg/mL
CCc1ccccc1Nc1nc(-c2ccccn2)cs1 [Compound 3]	≤ 1 µg/mL
c1ccc(Nc2nc(-c3ccccn3)cs2)cc1 [Compound 4]	≤ 1 µg/mL
Cc1ccc(Nc2nc(C(C)(C)C)cs2)c(C)c1 [Compound 5]	≤ 1 µg/mL
COc1ccc(-c2nc(Nc3c(C)cccc3C)sc2C)cc1 [Compound 7]	≤ 1 µg/mL
CCc1ccccc1Nc1nc(-c2ccc(O)c(O)c2)cs1 [Compound 9]	≤ 1 µg/mL
CCc1ccccc1Nc1nc(-c2ccc(O)cc2O)cs1 [Compound 10]	≤ 1 µg/mL

same assay, conditions: Mus musculus, 72 h, Table 3, 3 days, minimum non-cytotoxic concentration at which melanin amount was 80% or less, read-out: Inhibitory effect on melanin production

SMILES	minimal effective concentration
C=CCN(C1=NC(C)(C)C(=C)S1)c1ccc(C)cc1C [Compound 31]	≤ 1 µg/mL
C=C1SC(Nc2ccc(C)cc2C)=NC1(C)C [Compound 32]	≤ 1 µg/mL

same assay, conditions: Mus musculus, 72 h, Table 4, 3 days, minimum non-cytotoxic concentration at which melanin amount was 80% or less, read-out: Inhibitory effect on melanin production

SMILES	minimal effective concentration
O=C(Nc1nccs1)C1(c2ccccc2)CCCC1 [Compound 36]	≤ 1 µg/mL

same assay, conditions: Table 1, 3 days, minimum non-cytotoxic concentration at which melanin amount was 80% or less

SMILES	Inhibitory effect on melanin production
CC(=O)c1sc(Nc2ccccc2C)nc1C [Compound 6]	∘
Cc1cccc(C)c1Nc1nc(-c2ccccc2)cs1 [Compound 8]	⊚ (the minimum concentration for inhibition of melanin production was 1 ppm or less.)

same assay, conditions: Table 3, 3 days, minimum non-cytotoxic concentration at which melanin amount was 80% or less

SMILES	Inhibitory effect on melanin production
CCC1CSC(Nc2ccccc2)=N1 (centres unmarked) [Compound 19]	⊚ (the minimum concentration for inhibition of melanin production was 1 ppm or less.)
c1ccc(NC2=NCCS2)cc1 [Compound 20]	∘
CC1CN=C(Nc2ccccc2)S1 (centres unmarked) [Compound 21]	⊚ (the minimum concentration for inhibition of melanin production was 1 ppm or less.)
Cc1ccccc1NC1=NCCS1 [Compound 22]	⊚ (the minimum concentration for inhibition of melanin production was 1 ppm or less.)
COc1ccccc1NC1=NCCS1 [Compound 23]	⊚ (the minimum concentration for inhibition of melanin production was 1 ppm or less.)
COc1ccc(NC2=NC(C)(C)CS2)cc1 [Compound 24]	∘
COc1cccc(NC2=NC(C)(C)CS2)c1 [Compound 25]	∘
COc1ccccc1NC1=NC(C)(C)CS1 [Compound 26]	∘
Cc1ccc(NC2=NC(C)CS2)c(C)c1 (centres unmarked) [Compound 27]	∘
Cc1ccccc1NC1=NCC(C)(C)S1 [Compound 28]	⊚ (the minimum concentration for inhibition of melanin production was 1 ppm or less.)
OCC1(CO)CSC(Nc2ccccc2)=N1 [Compound 29]	∘
Cc1cc(C)c(NC2=NC(CO)(CO)CS2)c(C)c1 [Compound 30]	∘

same assay, conditions: Table 4, 3 days, minimum non-cytotoxic concentration at which melanin amount was 80% or less

SMILES	Inhibitory effect on melanin production
Cc1nc(NC(C)(C)C)sc1-c1ccccc1 [Compound 33]	⊚ (the minimum concentration for inhibition of melanin production was 1 ppm or less.)
Cc1ccc(C(=O)Nc2nc(C)cs2)cc1 [Compound 34]	∘
O=C(Nc1nc2c(s1)CCCC2)c1ccccc1 [Compound 35]	⊚ (the minimum concentration for inhibition of melanin production was 1 ppm or less.)
Cc1ccc2oc(Nc3nc(C)cc(O)n3)nc2c1 [Compound 37]	∘

same assay, conditions: Table 5, 3 days, minimum non-cytotoxic concentration at which melanin amount was 80% or less

SMILES	Inhibitory effect on melanin production
CC1(C)CN=C(Nc2cccnc2)S1 [Compound 38]	∘
CC1(C)CN=C(NC2CCCCC2)S1 [Compound 39]	∘
CC1(C)CN=C(NCc2ccccc2)S1 [Compound 40]	∘

— US20100324096A1, “Whitening Agent And Skin External Preparation” (SHISEIDO COMPANY LTD., priority 2008, published 2010)
